Test results reported in US20230293565A1, “USE OF WNT/BETA-CATENIN PATHWAY INHIBITORS TO BLOCK REPLICATION OF SARS-COV-2 AND OTHER PATHOGENIC VIRUSES” (THE GOVERNORS OF THE UNIVERSITY OF ALBERTA, priority 2020, published 2023).

Test system: SARS-CoV-2 variants (D614G, UK B.1.1.7, SA B.1.351, Brazil P.1)
Type: cell-based

SMILES	reduction of SARS-CoV-2 variant titers
O=C([O-])CCN1C(=O)/C(=C/c2ccc(-c3ccc([N+](=O)[O-])cc3)o2)SC1=S.[K+] [KYA1797K]	85-96%
Cc1cc(/C=C/c2ccc3cc(N(C)C)ccc3[n+]2C)c(C)n1-c1ccccc1 [Pyrvinium]	77-96%
